Assay results as given in ChEMBL document CHEMBL3045124, “Molecular docking and in silico studies on analogues of 2-methylheptyl isonicotinate with DHDPS enzyme of Mycobacterium tuberculosis” (2013).
In brackets after ≈: the same amount, converted by molar mass.

Columns and labels:
Format in all cases: functional
[1] = tested on: Shigella sp.; assay: Antibacterial activity against Shigella sp. after 24 hr by agar cup assay
[2] = tested on: Bacillus subtilis; assay: Antibacterial activity against Bacillus subtilis after 24 hr by agar cup assay
[3] = tested on: Proteus mirabilis; assay: Antibacterial activity against Proteus mirabilis after 24 hr by agar cup assay
[4] = tested on: Klebsiella sp.; assay: Antibacterial activity against Klebsiella sp. after 24 hr by agar cup assay
[5] = tested on: Arthrobacter sp.; assay: Antibacterial activity against Arthrobacter sp. after 24 hr by agar cup assay
[6] = tested on: Escherichia coli; assay: Antibacterial activity against Escherichia coli after 24 hr by agar cup assay
[7] = tested on: Escherichia coli; assay: Antibacterial activity against Escherichia coli
[8] = tested on: Bacillus subtilis; assay: Antibacterial activity against Bacillus subtilis
[9] = tested on: Mycobacterium tuberculosis; assay: Antitubercular activity against Mycobacterium tuberculosis
[10] = tested on: Proteus vulgaris; assay: Antimicrobial activity against Proteus vulgaris

Compound | MIC [1] | MIC [2] | MIC [3] | MIC [4] | MIC [5] | MIC [6] | MIC [7] | MIC [8] | MIC [9] | MIC [10]
CCCCCC(C)COC(=O)c1ccncc1 (centres undefined) [2-METHYL HEPTYL ISONICOTINATE] | 60 mg/L (≈ 255 µM) | 50 mg/L (≈ 212 µM) | 40 mg/L (≈ 170 µM) | 50 mg/L (≈ 212 µM) | 40 mg/L (≈ 170 µM) | 70 mg/L (≈ 297 µM) |  |  |  | 
CCCCC[C@H](C)COC(=O)c1ccncc1 [(S)-2-METHYLHEPTYL ISONICOTINATE] |  |  |  |  |  |  | 20 mg/L (≈ 85 µM) | 20 mg/L (≈ 85 µM) | 14 mg/L (≈ 59.5 µM) | 14 mg/L (≈ 59.5 µM)
NNC(=O)c1ccncc1 [ISONIAZID] | 300 mg/L (≈ 2190 µM) | 150 mg/L (≈ 1090 µM) | 200 mg/L (≈ 1460 µM) | 250 mg/L (≈ 1820 µM) | 150 mg/L (≈ 1090 µM) | 2520 mg/L (≈ 18400 µM) |  |  |  | 
CCCCC[C@@H](C)COC(=O)c1ccncc1 [ISONICOTINIC ACID 2-METHYL-HEPTYL ESTER] |  |  |  |  |  |  | 16 mg/L (≈ 68 µM) | 16 mg/L (≈ 68 µM) | 10 mg/L (≈ 42.5 µM) | 6 mg/L (≈ 25.5 µM)
CCCCOC(=O)c1ccncc1 [ISONICOTINIC ACID BUTYL ESTER] |  |  |  |  |  |  | 600 mg/L (≈ 3350 µM) | 600 mg/L (≈ 3350 µM) | 280 mg/L (≈ 1560 µM) | 500 mg/L (≈ 2790 µM)
CCCCCCCOC(=O)c1ccncc1 [ISONICOTINIC ACID HEPTYL ESTER] |  |  |  |  |  |  | 24 mg/L (≈ 108 µM) | 24 mg/L (≈ 108 µM) | 16 mg/L (≈ 72.3 µM) | 16 mg/L (≈ 72.3 µM)
CCCCCCOC(=O)c1ccncc1 [ISONICOTINIC ACID HEXYL ESTER] |  |  |  |  |  |  | 50 mg/L (≈ 241 µM) | 50 mg/L (≈ 241 µM) | 24 mg/L (≈ 116 µM) | 36 mg/L (≈ 174 µM)
CCCCCCCCCCCCCCCCCCOC(=O)c1ccncc1 [ISONICOTINIC ACID OCTADECYL ESTER] |  |  |  |  |  |  | 600 mg/L (≈ 1600 µM) | 600 mg/L (≈ 1600 µM) | 320 mg/L (≈ 852 µM) | 560 mg/L (≈ 1490 µM)
CCCCCCCCOC(=O)c1ccncc1 [ISONICOTINIC ACID OCTYL ESTER] |  |  |  |  |  |  | 16 mg/L (≈ 68 µM) | 16 mg/L (≈ 68 µM) | 8 mg/L (≈ 34 µM) | 6 mg/L (≈ 25.5 µM)
CCCCCOC(=O)c1ccncc1 [ISONICOTINIC ACID PENTYL ESTER] |  |  |  |  |  |  | 20 mg/L (≈ 103 µM) | 20 mg/L (≈ 103 µM) | 10 mg/L (≈ 51.7 µM) | 14 mg/L (≈ 72.4 µM)
